# Read-outs that look alike come from different tables or passages of the source.
# Tests used:
# [1] = human, in vivo, po
# [2] = clinical drug-drug interaction study: effect of alisporivir on digoxin (P-gp substrate) pharmacokinetics; format: in vivo, human; details: alisporivir 600 mg BID for 7 days; single oral 0.25 mg dose of digoxin
# Procedure: Digoxin 0.25 mg is generally initiated in patients under the age of 70 with good renal function. When digoxin is taken with food high in bran fiber, the amount absorbed from an oral dose may be reduced.
# [3] = clinical drug-drug interaction study: effect of alisporivir on telaprevir (CYP3A4 and P-gp substrate) pharmacokinetics; format: in vivo; details: healthy human subjects; alisporivir 600 mg BID for 7 day and 600 mg QD for one additional day; single 375 mg oral dose of telaprevir
# Procedure: The T1/2 of telaprevir was longer when telaprevir was administered with alisporivir.
# [4] = clinical drug-drug interaction study: effect of alisporivir on valsartan (CYP2C9, OATP1B1, OATP1B3, MRP2 substrate) pharmacokinetics; details: alisporivir 600 mg BID for 7 days; single oral 40 mg dose of valsartan
# [5] = effect of alisporivir on circulating bilirubin concentrations in healthy subjects; details: 40 mg valsartan before and after alisporivir 600 mg BID 7 days then QD
# [6] = clinical drug-drug interaction study: effect of alisporivir on boceprevir (CYP3A4 and P-gp substrate) pharmacokinetics; format: in vivo; details: healthy human subjects; alisporivir 600 mg BID for 7 days and 600 mg QD for one additional day; single 400 mg oral dose of boceprevir
# Procedure: The T1/2 of boceprevir was similar when boceprevir was administered with alisporivir.
# [7] = clinical drug-drug interaction study: effect of alisporivir on buspirone (sensitive CYP3A4 substrate) pharmacokinetics; details: alisporivir 600 mg BID for 7 days; single oral 5 mg dose of buspirone
# [8] = clinical drug-drug interaction study: effect of alisporivir on azithromycin (CYP3A4 substrate) pharmacokinetics; format: in vivo, human; details: single 1200 mg oral dose of alisporivir; single oral 1000 mg dose of azithromycin
# [9] = human, in vivo, po; remark: listed apart in the source
# [10] = alisporivir 600 mg BID for 10 days; single 40 mg oral dose of atorvastatin
# [11] = target: T1, UGT1A1 (Homo sapiens, UniProt P22309)
# T1 sequence (P22309 26-533): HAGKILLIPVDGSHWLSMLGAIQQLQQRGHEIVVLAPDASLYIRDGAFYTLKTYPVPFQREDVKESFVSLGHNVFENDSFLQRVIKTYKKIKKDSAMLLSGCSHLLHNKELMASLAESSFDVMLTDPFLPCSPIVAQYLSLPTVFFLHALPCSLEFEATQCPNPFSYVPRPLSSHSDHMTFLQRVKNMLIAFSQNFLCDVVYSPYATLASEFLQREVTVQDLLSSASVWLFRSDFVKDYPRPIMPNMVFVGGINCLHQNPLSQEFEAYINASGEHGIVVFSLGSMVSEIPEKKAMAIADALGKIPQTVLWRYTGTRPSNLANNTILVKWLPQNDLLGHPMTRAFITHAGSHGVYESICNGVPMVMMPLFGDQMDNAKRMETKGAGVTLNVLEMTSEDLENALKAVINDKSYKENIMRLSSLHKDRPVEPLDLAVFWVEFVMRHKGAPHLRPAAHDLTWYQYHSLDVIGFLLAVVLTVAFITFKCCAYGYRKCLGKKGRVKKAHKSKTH
# [12] = target: T2, OATP1B3 (Homo sapiens, UniProt Q9NPD5)
# T2 sequence (Q9NPD5 1-702): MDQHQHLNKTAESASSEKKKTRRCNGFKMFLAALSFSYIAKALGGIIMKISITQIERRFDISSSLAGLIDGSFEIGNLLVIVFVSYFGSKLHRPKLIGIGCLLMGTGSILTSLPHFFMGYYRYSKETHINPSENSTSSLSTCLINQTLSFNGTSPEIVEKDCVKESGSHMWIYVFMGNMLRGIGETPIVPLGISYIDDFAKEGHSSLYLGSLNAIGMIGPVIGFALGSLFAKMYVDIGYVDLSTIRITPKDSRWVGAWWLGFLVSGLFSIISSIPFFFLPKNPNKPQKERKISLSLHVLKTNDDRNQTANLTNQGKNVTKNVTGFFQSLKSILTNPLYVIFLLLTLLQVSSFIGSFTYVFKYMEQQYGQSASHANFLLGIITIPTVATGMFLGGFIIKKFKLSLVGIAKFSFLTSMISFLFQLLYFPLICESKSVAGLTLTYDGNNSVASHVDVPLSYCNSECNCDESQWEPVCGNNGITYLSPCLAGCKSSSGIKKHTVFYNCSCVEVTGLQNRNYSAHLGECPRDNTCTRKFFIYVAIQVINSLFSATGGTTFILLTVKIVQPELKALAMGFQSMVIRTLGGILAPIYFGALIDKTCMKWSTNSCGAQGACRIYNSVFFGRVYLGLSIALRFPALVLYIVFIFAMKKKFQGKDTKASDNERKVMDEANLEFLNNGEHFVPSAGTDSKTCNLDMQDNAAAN
# [13] = target: T3, OATP1B1 (Homo sapiens, UniProt Q9Y6L6)
# T3 sequence (Q9Y6L6 1-691): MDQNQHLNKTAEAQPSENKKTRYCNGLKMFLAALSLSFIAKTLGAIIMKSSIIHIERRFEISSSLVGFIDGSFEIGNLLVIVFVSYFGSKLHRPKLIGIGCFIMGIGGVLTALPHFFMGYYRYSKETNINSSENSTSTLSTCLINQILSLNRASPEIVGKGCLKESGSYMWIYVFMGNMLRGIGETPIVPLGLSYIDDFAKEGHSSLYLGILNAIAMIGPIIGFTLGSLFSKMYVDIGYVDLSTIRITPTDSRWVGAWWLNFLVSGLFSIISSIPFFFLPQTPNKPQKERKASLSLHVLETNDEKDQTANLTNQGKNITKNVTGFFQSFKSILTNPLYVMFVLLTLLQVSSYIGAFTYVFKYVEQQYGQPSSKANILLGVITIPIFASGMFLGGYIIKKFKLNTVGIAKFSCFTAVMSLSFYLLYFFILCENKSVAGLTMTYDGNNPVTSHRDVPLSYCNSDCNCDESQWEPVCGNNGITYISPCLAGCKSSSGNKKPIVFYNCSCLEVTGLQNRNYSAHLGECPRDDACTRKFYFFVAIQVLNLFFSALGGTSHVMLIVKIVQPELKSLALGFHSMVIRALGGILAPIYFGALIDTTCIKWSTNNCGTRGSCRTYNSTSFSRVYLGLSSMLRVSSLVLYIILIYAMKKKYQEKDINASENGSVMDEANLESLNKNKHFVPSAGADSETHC
# [14] = target: T2, OATP1B3; remark: listed apart in the source
# [15] = target: BSEP (Homo sapiens, UniProt O95342)
# Sequence of BSEP (O95342 whole entry): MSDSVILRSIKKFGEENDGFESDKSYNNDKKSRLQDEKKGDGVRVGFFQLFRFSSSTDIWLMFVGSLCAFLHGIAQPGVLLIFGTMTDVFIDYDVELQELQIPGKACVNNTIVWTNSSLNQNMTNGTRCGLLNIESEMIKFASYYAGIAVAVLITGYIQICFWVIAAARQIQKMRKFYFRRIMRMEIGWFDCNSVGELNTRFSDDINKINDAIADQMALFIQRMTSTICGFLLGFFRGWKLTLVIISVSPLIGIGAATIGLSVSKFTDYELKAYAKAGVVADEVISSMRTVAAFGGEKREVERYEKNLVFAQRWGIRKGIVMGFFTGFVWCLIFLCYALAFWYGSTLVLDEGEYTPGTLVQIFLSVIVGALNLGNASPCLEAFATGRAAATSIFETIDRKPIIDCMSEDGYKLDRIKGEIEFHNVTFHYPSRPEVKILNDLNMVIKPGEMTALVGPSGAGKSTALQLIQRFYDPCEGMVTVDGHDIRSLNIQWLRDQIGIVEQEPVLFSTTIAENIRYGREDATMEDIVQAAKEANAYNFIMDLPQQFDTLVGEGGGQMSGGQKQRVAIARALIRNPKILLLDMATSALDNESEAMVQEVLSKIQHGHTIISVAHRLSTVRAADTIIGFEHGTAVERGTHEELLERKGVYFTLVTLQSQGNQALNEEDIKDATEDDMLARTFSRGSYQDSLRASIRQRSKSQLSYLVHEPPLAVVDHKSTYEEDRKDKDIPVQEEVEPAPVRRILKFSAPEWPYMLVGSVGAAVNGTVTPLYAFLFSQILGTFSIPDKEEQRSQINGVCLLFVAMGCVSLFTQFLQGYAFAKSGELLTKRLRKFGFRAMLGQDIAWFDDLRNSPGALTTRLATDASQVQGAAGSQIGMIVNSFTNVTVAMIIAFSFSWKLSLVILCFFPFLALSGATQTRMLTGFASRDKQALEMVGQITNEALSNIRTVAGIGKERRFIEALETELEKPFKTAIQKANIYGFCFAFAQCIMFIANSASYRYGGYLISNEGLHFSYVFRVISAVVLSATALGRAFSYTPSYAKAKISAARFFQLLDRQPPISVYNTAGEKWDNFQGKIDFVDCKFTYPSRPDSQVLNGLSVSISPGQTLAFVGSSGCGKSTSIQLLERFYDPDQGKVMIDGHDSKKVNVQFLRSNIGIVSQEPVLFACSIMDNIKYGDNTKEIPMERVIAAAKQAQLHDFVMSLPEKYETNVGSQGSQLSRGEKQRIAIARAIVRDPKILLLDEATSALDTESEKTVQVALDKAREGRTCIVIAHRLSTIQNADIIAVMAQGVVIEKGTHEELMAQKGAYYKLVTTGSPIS
# [16] = target: T4, NTCP (Homo sapiens, UniProt Q14973)
# T4 sequence (Q14973 1-349): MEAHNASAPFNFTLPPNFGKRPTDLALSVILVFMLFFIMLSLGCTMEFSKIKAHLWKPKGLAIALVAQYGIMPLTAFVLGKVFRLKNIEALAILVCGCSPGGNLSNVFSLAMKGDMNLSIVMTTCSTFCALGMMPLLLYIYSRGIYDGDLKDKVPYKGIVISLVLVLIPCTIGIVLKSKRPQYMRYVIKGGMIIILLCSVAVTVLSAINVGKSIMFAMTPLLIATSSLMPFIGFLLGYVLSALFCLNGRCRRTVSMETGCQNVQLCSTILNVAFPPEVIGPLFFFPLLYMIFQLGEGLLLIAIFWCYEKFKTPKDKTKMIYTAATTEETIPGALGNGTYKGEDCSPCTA
# [17] = target: P-gp (Homo sapiens, UniProt P08183); details: not told
# Sequence of P-gp (P08183 whole entry): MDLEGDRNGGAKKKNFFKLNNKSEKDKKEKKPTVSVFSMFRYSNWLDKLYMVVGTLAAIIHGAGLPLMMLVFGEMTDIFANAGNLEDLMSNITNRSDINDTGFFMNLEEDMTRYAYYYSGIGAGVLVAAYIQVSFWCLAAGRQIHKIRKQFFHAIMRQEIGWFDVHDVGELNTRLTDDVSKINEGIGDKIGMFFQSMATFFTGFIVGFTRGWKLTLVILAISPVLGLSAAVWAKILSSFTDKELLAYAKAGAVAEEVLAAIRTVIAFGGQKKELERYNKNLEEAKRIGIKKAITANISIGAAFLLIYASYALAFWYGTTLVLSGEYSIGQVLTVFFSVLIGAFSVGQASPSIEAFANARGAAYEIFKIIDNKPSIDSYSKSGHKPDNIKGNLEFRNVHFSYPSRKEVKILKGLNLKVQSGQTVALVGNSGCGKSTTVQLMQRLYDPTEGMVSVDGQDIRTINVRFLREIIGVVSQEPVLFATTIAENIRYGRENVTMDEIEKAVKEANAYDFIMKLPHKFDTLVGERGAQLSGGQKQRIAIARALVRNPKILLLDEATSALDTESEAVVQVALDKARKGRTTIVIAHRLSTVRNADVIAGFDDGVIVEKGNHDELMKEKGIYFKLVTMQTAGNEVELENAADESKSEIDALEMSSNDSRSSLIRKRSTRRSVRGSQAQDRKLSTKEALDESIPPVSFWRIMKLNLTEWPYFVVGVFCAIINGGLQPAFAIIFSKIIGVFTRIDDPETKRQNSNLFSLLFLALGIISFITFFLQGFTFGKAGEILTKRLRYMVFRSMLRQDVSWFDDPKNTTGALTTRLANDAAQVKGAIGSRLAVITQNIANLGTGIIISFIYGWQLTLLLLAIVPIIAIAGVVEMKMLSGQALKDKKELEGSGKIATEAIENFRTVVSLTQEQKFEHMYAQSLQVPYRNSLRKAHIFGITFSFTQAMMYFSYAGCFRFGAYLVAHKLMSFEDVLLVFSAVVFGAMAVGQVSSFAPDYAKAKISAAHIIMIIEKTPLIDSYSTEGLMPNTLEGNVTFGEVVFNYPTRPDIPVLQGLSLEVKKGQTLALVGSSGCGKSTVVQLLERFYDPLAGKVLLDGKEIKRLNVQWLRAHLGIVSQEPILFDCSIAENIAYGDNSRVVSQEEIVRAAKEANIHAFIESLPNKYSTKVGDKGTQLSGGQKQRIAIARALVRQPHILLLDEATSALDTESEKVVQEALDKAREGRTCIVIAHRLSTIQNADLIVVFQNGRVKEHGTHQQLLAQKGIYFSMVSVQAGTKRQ
# [18] = test system: HIV-1; details: in vitro; more potent than CsA; cited from earlier work
# [19] = human, in vivo, po; remark: listed apart in the source
# [20] = target: T5, UGT2B7 (Homo sapiens, UniProt P16662)
# T5 sequence (P16662 24-529): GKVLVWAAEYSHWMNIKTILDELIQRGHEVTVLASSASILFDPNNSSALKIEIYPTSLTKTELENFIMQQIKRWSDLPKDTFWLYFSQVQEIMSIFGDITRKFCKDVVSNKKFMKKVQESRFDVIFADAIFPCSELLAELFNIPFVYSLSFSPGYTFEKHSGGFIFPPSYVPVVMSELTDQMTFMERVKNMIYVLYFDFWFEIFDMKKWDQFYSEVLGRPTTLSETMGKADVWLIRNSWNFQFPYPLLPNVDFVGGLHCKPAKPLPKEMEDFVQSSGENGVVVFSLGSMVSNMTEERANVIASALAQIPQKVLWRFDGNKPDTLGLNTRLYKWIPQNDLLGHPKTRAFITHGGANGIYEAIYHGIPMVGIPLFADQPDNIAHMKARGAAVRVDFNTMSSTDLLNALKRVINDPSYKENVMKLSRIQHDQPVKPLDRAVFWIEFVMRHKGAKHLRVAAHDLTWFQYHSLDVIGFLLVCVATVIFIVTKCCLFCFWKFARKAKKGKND
# [21] = target: T3, OATP1B1; remark: listed apart in the source
# [22] = target: T6, MRP2 (Homo sapiens, UniProt Q92887); details: not told
# T6 sequence (Q92887 whole entry): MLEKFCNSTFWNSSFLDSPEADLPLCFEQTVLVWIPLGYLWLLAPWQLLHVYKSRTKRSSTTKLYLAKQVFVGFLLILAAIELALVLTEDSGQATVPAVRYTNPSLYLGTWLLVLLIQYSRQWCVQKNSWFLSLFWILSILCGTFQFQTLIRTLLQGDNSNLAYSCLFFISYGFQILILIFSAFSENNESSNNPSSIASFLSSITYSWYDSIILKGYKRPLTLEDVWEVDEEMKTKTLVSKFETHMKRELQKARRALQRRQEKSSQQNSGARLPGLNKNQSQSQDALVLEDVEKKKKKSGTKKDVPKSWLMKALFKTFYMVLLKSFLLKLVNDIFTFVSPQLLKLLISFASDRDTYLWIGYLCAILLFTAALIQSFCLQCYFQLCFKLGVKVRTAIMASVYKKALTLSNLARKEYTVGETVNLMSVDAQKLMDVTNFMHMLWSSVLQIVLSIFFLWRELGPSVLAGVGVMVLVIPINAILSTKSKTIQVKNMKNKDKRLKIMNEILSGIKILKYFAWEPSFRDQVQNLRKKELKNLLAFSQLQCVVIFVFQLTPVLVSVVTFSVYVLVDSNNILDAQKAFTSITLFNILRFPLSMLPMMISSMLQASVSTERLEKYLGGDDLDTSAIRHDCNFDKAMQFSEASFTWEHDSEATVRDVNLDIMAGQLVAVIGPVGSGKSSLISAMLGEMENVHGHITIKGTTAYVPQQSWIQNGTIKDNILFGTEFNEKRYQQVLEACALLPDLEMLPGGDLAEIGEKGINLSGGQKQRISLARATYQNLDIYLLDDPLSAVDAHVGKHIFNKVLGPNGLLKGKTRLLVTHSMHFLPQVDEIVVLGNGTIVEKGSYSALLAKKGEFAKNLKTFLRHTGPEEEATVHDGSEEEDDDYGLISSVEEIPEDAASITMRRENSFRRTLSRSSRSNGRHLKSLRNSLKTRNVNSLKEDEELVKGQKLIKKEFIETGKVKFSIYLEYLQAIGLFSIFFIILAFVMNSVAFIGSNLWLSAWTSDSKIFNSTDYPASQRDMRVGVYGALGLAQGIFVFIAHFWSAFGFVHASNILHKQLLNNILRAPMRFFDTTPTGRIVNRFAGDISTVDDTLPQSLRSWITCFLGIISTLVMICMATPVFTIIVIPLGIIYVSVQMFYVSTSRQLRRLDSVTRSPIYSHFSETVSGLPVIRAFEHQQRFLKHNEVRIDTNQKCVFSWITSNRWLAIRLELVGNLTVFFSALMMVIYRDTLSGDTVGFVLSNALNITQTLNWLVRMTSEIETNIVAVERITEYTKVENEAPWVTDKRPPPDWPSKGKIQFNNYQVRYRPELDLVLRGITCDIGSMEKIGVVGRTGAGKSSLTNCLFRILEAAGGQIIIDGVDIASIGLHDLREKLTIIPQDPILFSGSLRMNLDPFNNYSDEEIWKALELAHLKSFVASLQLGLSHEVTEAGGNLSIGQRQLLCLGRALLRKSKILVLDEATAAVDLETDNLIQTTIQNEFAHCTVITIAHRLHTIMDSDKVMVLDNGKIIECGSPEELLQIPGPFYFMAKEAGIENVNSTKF
# [23] = target: CYP3A4 (Homo sapiens, UniProt P08684)
# Sequence of CYP3A4 (P08684 whole entry): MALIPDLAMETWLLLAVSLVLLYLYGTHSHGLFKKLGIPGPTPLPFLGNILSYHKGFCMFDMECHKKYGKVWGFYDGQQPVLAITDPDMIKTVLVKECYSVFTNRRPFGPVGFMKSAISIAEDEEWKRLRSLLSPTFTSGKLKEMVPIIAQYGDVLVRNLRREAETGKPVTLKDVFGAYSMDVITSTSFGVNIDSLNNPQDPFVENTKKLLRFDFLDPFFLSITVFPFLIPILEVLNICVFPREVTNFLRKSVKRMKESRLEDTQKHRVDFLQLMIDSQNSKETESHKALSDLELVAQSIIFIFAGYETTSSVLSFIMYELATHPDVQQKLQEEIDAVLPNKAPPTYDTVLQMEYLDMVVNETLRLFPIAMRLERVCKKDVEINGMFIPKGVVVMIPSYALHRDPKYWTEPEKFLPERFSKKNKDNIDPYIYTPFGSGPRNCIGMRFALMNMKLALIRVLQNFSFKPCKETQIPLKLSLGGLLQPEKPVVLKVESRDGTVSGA
# [24] = human, in vivo, po; remark: listed apart in the source
# [25] = test system: CYP isozymes
# [26] = target: T6, MRP2
structure (smiles),measurement,setting,value
CC(C)n1c(/C=C/C(O)CC(O)CC(=O)O)c(-c2ccc(F)cc2)c2ccccc21 (centres unmarked) [fluvastatin],T1/2 when administered with alisporivir,[1],longer
C[C@H]1O[C@@H](O[C@H]2[C@@H](O)C[C@H](O[C@H]3[C@@H](O)C[C@H](O[C@H]4CC[C@@]5(C)[C@H](CC[C@@H]6[C@@H]5C[C@@H](O)[C@]5(C)[C@@H](C7=CC(=O)OC7)CC[C@]65O)C4)O[C@@H]3C)O[C@@H]2C)C[C@H](O)[C@@H]1O [digoxin],effect of alisporivir on renal clearance,[2],did not affect
same,increase in Cmax,[2],~1.8 fold
same,increase in the AUC,[2],~2.6 fold
CCC[C@H](NC(=O)[C@@H]1[C@H]2CCC[C@H]2CN1C(=O)[C@@H](NC(=O)[C@@H](NC(=O)c1cnccn1)C1CCCCC1)C(C)(C)C)C(=O)C(=O)NC1CC1 [telaprevir],T1/2 when administered with alisporivir,[3],longer
same,increase in the Cmax,[3],~2.4 fold
CCCCC(=O)N(Cc1ccc(-c2ccccc2-c2nnn[nH]2)cc1)[C@H](C(=O)O)C(C)C [valsartan],increase in Cmax,[4],approximately 2.3 fold
same,increase in the AUC,[4],~6 fold
same,Valsartan exposure increased,[5],~6 fold
CC(C)(C)NC(=O)N[C@H](C(=O)N1C[C@H]2[C@@H]([C@H]1C(=O)NC(CC1CCC1)C(=O)C(N)=O)C2(C)C)C(C)(C)C (some centres unmarked) [boceprevir],T1/2 when administered with alisporivir,[6],similar
same,increase in the Cmax,[6],~47%
c1cnc(N2CCNCC2)nc1 [1-PP],AUC increase (metabolite of buspirone),[7],12-15%
CC[C@H]1OC(=O)[C@H](C)[C@@H](O[C@H]2C[C@@](C)(OC)[C@@H](O)[C@H](C)O2)[C@H](C)[C@@H](O[C@@H]2O[C@H](C)C[C@H](N(C)C)[C@H]2O)[C@](C)(O)C[C@@H](C)CN(C)[C@H](C)[C@@H](O)[C@]1(C)O [azithromycin],increase in the AUC,[8],32-39%
CN(C)CCC[C@@]1(c2ccc(F)cc2)OCc2cc(C#N)ccc21 [escitalopram],T1/2 when administered with alisporivir,[9],similar
CC(C)c1c(C(=O)Nc2ccccc2O)c(-c2ccccc2)c(-c2ccc(F)cc2)n1CCC(O)CC(O)CC(=O)O (centres unmarked) [o-OH-atorvastatin],increase in exposure (AUC),[10],~9 fold
same,increase in exposure (Cmax),[10],approximately 7 fold
C/C=C/C[C@@H](C)[C@@H](O)[C@H]1C(=O)N[C@@H](CC)C(=O)N(C)[C@H](C)C(=O)N(CC)[C@@H](C(C)C)C(=O)N[C@@H](C(C)C)C(=O)N(C)[C@@H](CC(C)C)C(=O)N[C@@H](C)C(=O)N[C@H](C)C(=O)N(C)[C@@H](CC(C)C)C(=O)N(C)[C@@H](CC(C)C)C(=O)N(C)[C@@H](C(C)C)C(=O)N1C [alisporivir],inhibition of UGT1A1,[11],does not inhibit
same,IC50,[12],0.7 µM
same,inhibition of OATP1B1,[13],inhibitor
same,inhibition of OATP1B3,[14],inhibitor
same,inhibition of BSEP,[15],inhibitor
same,inhibition of NTCP,[16],inhibitor
same,inhibition of P-gp,[17],inhibitor
same,anti-HIV-1 potency relative to CsA,[18],approximately 10 fold
same,T1/2 when administered with telaprevir,[19],shorter
same,inhibition of UGT2B7,[20],does not inhibit
same,IC50,[21],0.7 µM
same,inhibition of MRP2,[22],inhibitor
same,inhibition of CYP3A4,[23],time-dependent inhibitor of CYP3A4
same,T1/2 when administered with boceprevir,[24],shorter
same,inducing effects on CYP isozymes,[25],no inducing effects
same,Ki,[26],5.9 µM

# From patent US20150133369A1, “PHARMACOKINETIC MODULATION WITH ALISPORIVIR” (priority 2012, published 2015)
